Reference: US8835428B2, “Diacylglycerol acyltransferase inhibitors” (Piramal Enterprises Limited, priority 2008, dated 2014)

Molecular target: T1, hDGAT1 (Homo sapiens, UniProt O75907)
T1 construct: host or cells: Sf9 insect cells (baculovirus); microsomal preparation
T1 sequence (O75907 1-488): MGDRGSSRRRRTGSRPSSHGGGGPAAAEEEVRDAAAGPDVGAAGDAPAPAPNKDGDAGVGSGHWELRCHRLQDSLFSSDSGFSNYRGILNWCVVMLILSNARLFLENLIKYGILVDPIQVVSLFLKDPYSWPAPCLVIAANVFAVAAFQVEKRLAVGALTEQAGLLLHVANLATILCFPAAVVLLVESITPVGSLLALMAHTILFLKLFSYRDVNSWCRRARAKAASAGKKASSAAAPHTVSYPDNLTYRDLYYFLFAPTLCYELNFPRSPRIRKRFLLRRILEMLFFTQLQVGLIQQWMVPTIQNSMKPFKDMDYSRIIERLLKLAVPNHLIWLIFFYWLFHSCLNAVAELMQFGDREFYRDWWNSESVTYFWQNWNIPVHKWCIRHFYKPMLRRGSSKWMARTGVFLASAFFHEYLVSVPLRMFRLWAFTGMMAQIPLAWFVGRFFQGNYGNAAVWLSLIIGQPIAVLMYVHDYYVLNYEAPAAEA
Assay: In-vitro DGAT1 assay (hDGAT1 microsomes from Sf9 cells, 14C oleoyl CoA, triglyceride formation)
Type: biochemical
Details: At 1 μM
Summary of the method: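 Human DGAT1 in baculovirus-infected Sf9 microsomes (2.5–10 μg), [14C]oleoyl-CoA with 409.5, 1228.5 or 1638 μM 1,2-dioleoyl-sn-glycerol, Tris-HCl pH 7.4 buffer with BSA. Compounds screened at 10, 5 and 1 μM in duplicate. Reaction 10 min at 37 °C; heptane-extracted [14C]triglyceride counted by scintillation.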

Compound | inhibition at 1 µM
Cc1ccc(NC(=O)Nc2ccc(-c3nc(C(=O)N[C@H](C(=O)O)C(C)C)cs3)cc2)cc1C [Example 363, (S)-2-(2-(4-(3-(3,4-dimethylphenyl)ureido)phenyl)thiazole-4-carboxamido)-3-methylbutanoic acid] | 0 to 50%
CC(C)[C@H](NC(=O)c1csc(-c2ccc(NC(=O)Nc3ccc(Cl)cc3Oc3ccccc3)cc2)n1)C(=O)O [Example 365, (S)-2-(2-(4-(3-(4-chloro-2-phenoxyphenyl)ureido)phenyl)thiazole-4-carboxamido)-3-methylbutanoic acid] | 50 to 75%

More lines, now with the values ahead:

inhibition at 1 µM | Compound
0 to 50% | CC(C)[C@H](NC(=O)c1csc(-c2ccc(NC(=O)Nc3cccc(C(F)(F)F)c3)cc2)n1)C(=O)O [Example 367, (S)-3-Methyl-2-(2-(4-(3-(3-(trifluoromethyl)phenyl)ureido)phenyl)thiazole-4-carboxamido)butanoic acid]
0 to 50% | CC(C)[C@H](NC(=O)c1csc(-c2ccc(NC(=O)Nc3ccccc3Cl)cc2)n1)C(=O)O [Example 369, (S)-2-(2-(4-(3-(2-Chlorophenyl)ureido)phenyl)thiazole-4-carboxamido)-3-methylbutanoic acid]
0 to 50% | CC(C)[C@H](NC(=O)c1csc(-c2ccc(NC(=O)Nc3ccc(F)c(F)c3)cc2)n1)C(=O)O [Example 371, (S)-2-(2-(4-(3-(3,4-Difluorophenyl)ureido)phenyl)thiazole-4-carboxamido)-3-methylbutanoic acid]

Same assay, conditions: At 10 μM

Compound | % inhibition of hDGAT1
(S)-({3-[4-(6-Fluoro-benzothiazol-2-ylamino)-phenyl]-isoxazole-5-carbothioyl}-amino)-phenyl-acetic acid [Example 55] | ++ (>50% Inhibition ≦75)
